Test results published in ChEMBL document CHEMBL1127119, “Pneumocandin antifungal lipopeptides. The phenolic hydroxyl is required for 1,3--glucan synthesis inhibition” (Bioorg Med Chem Lett, 1993).
Values after ≈ are worked out from the molar mass of the structure shown. Numbered stars: 1 amine (or outer) side, 2 acyl side, 3 side chain; on linkers, the order of the positions; unused ones are H or OH. Bridge positions count the residues as written; N and C are the ends. Square brackets hold non-standard residues; d marks the D form. Peptide text beside a SMILES is read from it. * marks the point of attachment. Orn(4R-OH,5R-OH) = O=C([C@H](C[C@@H](O)[C@@H](O)N[*:3])N[*:1])[*:2]; X3 = O=C([C@@H](N[*:1])[C@H](O)[C@@H](O)c1ccc(OP(=O)(O)O)cc1)[*:2]; hTyr(3S-OH,4S-OH) = N[C@H](C(=O)O)[C@H](O)[C@@H](O)c1ccc(O)cc1; X4 = O=C([C@@H](N[*:1])[C@H](O)[C@H](O)c1ccc(O)cc1)[*:2]; X2 = O=C([C@@H](N[*:1])[C@H](O)[C@@H](O)c1ccccc1)[*:2]; X6 = O=C(Oc1ccc(O)cc1)[C@@H](O)[C@H](N[*:1])C(=O)[*:2]; hTyr(3R-OH) = N[C@H](C(=O)O)[C@H](O)Cc1ccc(O)cc1; Gln(3R-OH) = NC(=O)C[C@@H](O)[C@H](N)C(=O)O; X5 = O=C([C@@H](N[*:1])[C@H](O)CO)[*:2]; Pro(3S-OH) = O=C(O)[C@H]1NCC[C@@H]1O; Hyp = O=C(O)[C@@H]1C[C@@H](O)CN1; X1 = CCC(C)CC(C)CCCCCCCCC(=O)*

How the values were obtained:
Mus musculus [1] = experiment: Minimum effective dose required for 99.9% reduction of viable CFUs recoverable from mouse kidneys infected with Candida albicans (MY1208) using in vivo Target Organ Kidney Assay (TOKA); type: functional
Candida tropicalis = experiment: The compound was tested for its antifungal activity against Candida tropicalis (MY1012); type: functional
Candida albicans [2] = experiment: The compound was tested for inhibition of 1,3-beta-glucan synthesis in a preparation containing membranes from Candida albicans (MY1208); type: functional
Candida albicans [3] = experiment: The compound was tested for its antifungal activity against Candida albicans (MY1055); type: functional
Candida parapsilosis = experiment: The compound was tested for its antifungal activity against Candida parapsilosis (MY1010); type: functional; details: Lodderomyces parapsilosis
Mus musculus [4] = organism: Mus musculus; experiment: Minimum effective dose required for 99.9% reduction of viable CFUs recoverable from mouse kidneys compared with sham-treated controls.; type: functional, Kidney

Row | SMILES | IC50 (Candida albicans [2]) [nM] | MED99.9 (Mus musculus [1]) [mg/kg] | MFC (Candida tropicalis) [µg/mL] | MFC (Candida albicans [3]) [µg/mL] | MFC (Candida parapsilosis) [µg/mL] | MED99.9 (Mus musculus [4]) [mg/kg]
1 | CCC(C)CC(C)CCCCCCCCC(=O)N[C@H]1C[C@@H](O)[C@@H](O)NC(=O)[C@@H]2[C@@H](O)CCN2C(=O)[C@H]([C@H](O)CC(N)=O)NC(=O)[C@H]([C@H](O)[C@@H](O)c2ccc(OP(=O)(O)O)cc2)NC(=O)[C@@H]2C[C@@H](O)CN2C(=O)[C@H]([C@@H](C)O)NC1=O (stereo partly drawn) (X1-[Orn(4R-OH,5R-OH)]T[Hyp][X3][Gln(3R-OH)][Pro(3S-OH)]; lactam 1-C) | > 10000 | 6 | 4 (≈ 3.49 µM) | 2 (≈ 1.75 µM) | 32 (≈ 27.9 µM) | 
2 | CCC(C)CC(C)CCCCCCCCC(=O)N[C@H]1C[C@@H](O)[C@@H](O)NC(=O)[C@@H]2[C@@H](O)CCN2C(=O)[C@H]([C@H](O)CC(N)=O)NC(=O)[C@H]([C@H](O)CO)NC(=O)[C@@H]2C[C@@H](O)CN2C(=O)[C@H]([C@@H](C)O)NC1=O (stereo partly drawn) (X1-[Orn(4R-OH,5R-OH)]T[Hyp][X5][Gln(3R-OH)][Pro(3S-OH)]; lactam 1-C) | > 1000 |  | 8 (≈ 8.22 µM) | 32 (≈ 32.9 µM) | 8 (≈ 8.22 µM) | 
3 | CCC(C)CC(C)CCCCCCCCC(=O)N[C@H]1C[C@@H](O)[C@@H](O)NC(=O)[C@@H]2[C@@H](O)CCN2C(=O)[C@H]([C@H](O)CC(N)=O)NC(=O)[C@H]([C@H](O)C(=O)Oc2ccc(O)cc2)NC(=O)[C@@H]2C[C@@H](O)CN2C(=O)[C@H]([C@@H](C)O)NC1=O (stereo partly drawn) (X1-[Orn(4R-OH,5R-OH)]T[Hyp][X6][Gln(3R-OH)][Pro(3S-OH)]; lactam 1-C) | > 1000 |  | 8 (≈ 7.41 µM) | 32 (≈ 29.7 µM) | 1 (≈ 0.927 µM) | 

Continued, in another order:

Row | IC50 (Candida albicans [2]) [nM] | SMILES | MED99.9 (Mus musculus [1]) [mg/kg] | MFC (Candida tropicalis) [µg/mL] | MFC (Candida albicans [3]) [µg/mL] | MFC (Candida parapsilosis) [µg/mL] | MED99.9 (Mus musculus [4]) [mg/kg]
4 | > 10000 | CCC(C)CC(C)CCCCCCCCC(=O)N[C@H]1C[C@@H](O)[C@@H](O)NC(=O)[C@@H]2[C@@H](O)CCN2C(=O)[C@H]([C@H](O)CC(N)=O)NC(=O)[C@H]([C@H](O)[C@@H](O)c2ccccc2)NC(=O)[C@@H]2C[C@@H](O)CN2C(=O)[C@H]([C@@H](C)O)NC1=O (stereo partly drawn) (X1-[Orn(4R-OH,5R-OH)]T[Hyp][X2][Gln(3R-OH)][Pro(3S-OH)]; lactam 1-C) | >6 | 1 (≈ 0.953 µM) | 4 (≈ 3.81 µM) | > 128 | 
5 | 5000 | CCC(C)CC(C)CCCCCCCCC(=O)N[C@H]1C[C@@H](O)[C@@H](O)NC(=O)[C@@H]2[C@@H](O)CCN2C(=O)[C@H]([C@H](O)CC(N)=O)NC(=O)[C@H]([C@H](O)[C@H](O)c2ccc(O)cc2)NC(=O)[C@@H]2C[C@@H](O)CN2C(=O)[C@H]([C@@H](C)O)NC1=O (stereo partly drawn) (X1-[Orn(4R-OH,5R-OH)]T[Hyp][X4][Gln(3R-OH)][Pro(3S-OH)]; lactam 1-C) |  | 64 (≈ 60.1 µM) | 8 (≈ 7.51 µM) | > 128 | >6
6 | 40 | CCC(C)CC(C)CCCCCCCCC(=O)N[C@H]1C[C@@H](O)[C@@H](O)NC(=O)[C@@H]2[C@@H](O)CCN2C(=O)[C@H]([C@H](O)CC(N)=O)NC(=O)[C@H]([C@H](O)Cc2ccc(O)cc2)NC(=O)[C@@H]2C[C@@H](O)CN2C(=O)[C@H]([C@@H](C)O)NC1=O (stereo partly drawn) (X1-[Orn(4R-OH,5R-OH)]T[Hyp][hTyr(3R-OH)][Gln(3R-OH)][Pro(3S-OH)]; lactam 1-C) |  | < 0.06 | 0.25 (≈ 0.238 µM) | 4 (≈ 3.81 µM) | 3
7 | 70 | CCC(C)CC(C)CCCCCCCCC(=O)N[C@H]1C[C@@H](O)[C@@H](O)NC(=O)[C@@H]2[C@@H](O)CCN2C(=O)[C@H]([C@H](O)CC(N)=O)NC(=O)[C@H]([C@H](O)[C@@H](O)c2ccc(O)cc2)NC(=O)[C@@H]2C[C@@H](O)CN2C(=O)[C@H]([C@@H](C)O)NC1=O (stereo partly drawn) (X1-[Orn(4R-OH,5R-OH)]T[Hyp][hTyr(3S-OH,4S-OH)][Gln(3R-OH)][Pro(3S-OH)]; lactam 1-C) | 6 | 0.06 (≈ 0.0563 µM) | 0.25 (≈ 0.235 µM) | 4 (≈ 3.76 µM) | 
